# Columns and labels:
# Format in all cases: in vivo, Male ICR mice
# mice [1] = test: elevated plus-maze test (antianxiety action); details: 100 mg/kg i.p., 30 minutes after administration
# Procedure: In the following Examples, all extracts and drugs used were dissolved in physiological saline before use for i.p. administration and the dose was 0.1 ml of physiological saline per 10 g of mouse body weight in either case. All extracts and drugs were suspended in physiological saline containing 1% sodium carboxymethylcellulose before use for oral administration and the dose was 0.1 ml of 1% sodium carboxymethylcellulose-containing physiological saline suspension per 10 g of mouse body weight in either case. […]
# An elevated plus-maze (Neuroscience Inc.) consisting of 2 arms without high walls and 2 arms enclosed by high walls, which were crossing perpendicular to each other, was used for evaluation. A mouse was placed on the platform at the center in a position facing toward an arm without walls, and the number of times the mouse entered into both arms and the period of the mouse staying in the arms without walls were determined during a period of 5 minutes. The results were evaluated by the ratio (%) of the number of the mouse entering into the arms without walls to the total number of entering into both arms and by the ratio (%) of the period of the mouse staying in the arms without walls to the test period. […]
# mice [2] = test: forced swimming test (antidepressive action); details: 100 mg/kg i.p., 6-minute period
# Procedure: (§1) In the following Examples, all extracts and drugs used were dissolved in physiological saline before use for i.p. administration and the dose was 0.1 ml of physiological saline per 10 g of mouse body weight in either case. All extracts and drugs were suspended in physiological saline containing 1% sodium carboxymethylcellulose before use for oral administration and the dose was 0.1 ml of 1% sodium carboxymethylcellulose-containing physiological saline suspension per 10 g of mouse body weight in either case. Male ICR mice (Japan SLC) having a body weight of 25 to 30 g were used in the tests below unless otherwise stated, and were fed in advance at a room temperature of 23±1° C. and a relative humidity of 55±5% in the environment of a cycle of 12-hour-light from 7 a.m. to 7 p.m. and 12-hour-dark from 7 p.m. to 7 a.m. for 3 to 5 days. The mice were allowed to have water and feed freely.
# Forced swimming tests were conducted according to the method of Porsolt et al. A mouse was placed in a cylindrical glass water tank of 10 cm in diameter and 25 cm in height (water temperature: 23° C.) filled with water to a depth of 10 cm and forced to swim therein. […] Each mouse was forced to swim 15 and 30 minutes after administration, and the immobile times during the 6-minute periods immediately after forced swimming were determined. […]
# mice [3] = test: histamine-induced paw edema test; details: 100 mg/kg i.p. 30 minutes before histamine 10 μg; 12 minutes after histamine
# Procedure: as §1
# Six mice per group were used. […] The thickness of the right hind paw was measured immediately before histamine administration and 12 minutes after histamine administration. The thickness immediately before administration was subtracted from the thickness of the paw after histamine administration, and this was adopted as a thickness of paw edema. As apparent from TABLE 18, paw edema due to histamine was suppressed by neferine. […]
# mice [4] = test: tail flick test; details: 15 minutes after administration, cut off time 10 seconds
# Procedure: as §1, with “The mice were allowed to have water and feed freely.” left out
# A tail flick test is a method in which, when radiant heat stimulation is locally added to a part of a tail 1 to 2 cm away from the tail root part of a mouse, a reaction of raising a tail as a provisional pain reaction is manifested, and anti-invasion action is determined by utilizing this reaction.
# Seven to nine mice per group were used. […] The reaction that a mouse raised a tail upon addition of radiant heat was regarded as a provisional pain reaction, and a time until its manifestation (latency time) was measured. […]
# mice [5] = test: suppression of the enhancement of ultromotivity by methamphetamine; details: methamphetamine 1 mg/kg 15 minutes later, 60 minutes
# Procedure: as §1, with “The mice were allowed to have water and feed freely.” left out
# Fifteen mice were grouped into three groups of five mice, to which 50 mg/kg of neferine hydrochloride (treatment group 3-1), 100 mg/kg of the same (treatment group 3-2), and only physiological saline (negative control group) were administered respectively intraperitoneally. […] After administration of methamphetamine, each of the mice was placed in a transparent polycarbonate cage (22.5 cm×33.8 cm×14.0 cm), where the ultromotivity of the mouse was analyzed for 60 minutes by using a locomotor activity analyzer (NS-AS01, Neuroscience Inc.).
structure (smiles),measurement,setting,value
COc1ccc(C[C@@H]2c3cc(Oc4cc(C[C@@H]5c6cc(OC)c(OC)cc6CCN5C)ccc4O)c(OC)cc3CCN2C)cc1 [neferine],Invasion times (%),mice [1]; entries into arms without walls / total entries,70%
same,Staying period (%),mice [1]; period in arms without walls / test period,33%
same,Immobile time (sec) After 15 minutes,mice [2]; 15 minutes after administration,165 s
same,Immobile time (sec) After 30 minutes,mice [2]; 30 minutes after administration,170 s
same,Thickness of paw edema (mm),mice [3],0.32 ± 0.03 mm
same,% MPE,mice [4]; 50 mg/kg i.p.,5.0 ± 2.30%
same,% MPE,mice [4]; 100 mg/kg i.p.,15.6 ± 2.89 %
same,Ultromotivity (count),mice [5]; 50 mg/kg i.p.,2600 count
same,Ultromotivity (count),mice [5]; 100 mg/kg i.p.,1800 count

# — US20070027181A1, “Benzylisoquinoline derivative- or bisbenzylisoquinoline derivative-containing psychotropic agent, analgesic and/or antiphlogistic, and health food” (EDUCATION CENTER OF TRADITIONAL, priority 2004, published 2007)
